Test system: Rhipicephalus sanguineus nymphs
Assay: Activity in vivo against Rhipicephalus sanguineus nymphs on Mongolian gerbils (spray application)
Details: tick number reduction vs placebo, Abbot's formula
Experimental: On day 0, gerbils are treated with the test compound at a given dose by spray application. On day +1 (+2), the animals are infested with nymphs of R. sanguineus. Ticks are left on the animals until full repletion. Seven days after infestation nymphs dropped off fully engorged are collected and counted. Efficacy in killing is expressed as a tick number reduction in comparison with a placebo treated group, using the Abbot's formula.

## Cc1cc(C2=NOC(c3cc(Cl)c(F)c(Cl)c3)(C(F)(F)F)C2)sc1C(=O)NCC(=O)NCC(F)(F)F (centres unmarked) [Compound 2.5]
Dose 10 mg/kg
  Efficacy in killing %: 90%

## Cc1cc(C2=NOC(c3cc(Cl)cc(Cl)c3)(C(F)(F)F)C2)sc1C(=O)Nc1cccnc1 (centres unmarked) [Compound 1.35]
Dose 10 mg/kg
  Efficacy in killing %: 82%

## Cc1cc(C2=NOC(c3cc(Cl)cc(Cl)c3)(C(F)(F)F)C2)sc1C(=O)NCC(=O)NCC(F)(F)F (centres unmarked) [Compound 1.28, 5-[5-(3,5-dichloro-phenyl)-5-trifluoromethyl-4,5-dihydro-isoxazol-3-yl]-3-methyl-thiophene-2-carboxylic acid [(2,2,2-trifluoro-ethylcarbamoyl)-methyl]-amide]
Dose 10 mg/kg
  Efficacy in killing %: 96%

## Cc1cc(C2=NOC(c3cc(Cl)c(Cl)c(Cl)c3)(C(F)(F)F)C2)sc1C(=O)NCC(=O)NCC(F)(F)F (centres unmarked) [Compound 2.4]
Dose 10 mg/kg
  Efficacy in killing %: 90%

## Cc1cc(C2=NOC(c3cc(Cl)cc(Cl)c3)(C(F)(F)F)C2)sc1C(=O)Nc1nc(C(F)(F)F)cs1 (centres unmarked) [Compound 1.31]
Dose 32 mg/kg
  Efficacy in killing %: 100%

## Cc1cc(C2=NOC(c3cc(Cl)cc(Cl)c3)(C(F)(F)F)C2)sc1C(=O)NCc1ccncc1 (centres unmarked) [Compound 1.32]
Dose 100 mg/kg
  Efficacy in killing %: 84%

## Cc1cc(C2=NOC(c3cc(Cl)cc(Cl)c3)(C(F)(F)F)C2)sc1C(=O)NCC(F)(F)F (centres unmarked) [Compound 1.8, 5-[5-(3,5-dichloro-phenyl)-5-trifluoromethyl-4,5-dihydro-isoxazol-3-yl]-3-methyl-thiophene-2-carboxylic acid (2,2,2-trifluoro-ethyl)-amide]
Dose 32 mg/kg
  Efficacy in killing %: 80%

## C#CCNC(=O)CNC(=O)c1sc(C2=NOC(c3cc(Cl)cc(Cl)c3)(C(F)(F)F)C2)cc1C (centres unmarked) [Compound 1.48]
Dose 10 mg/kg
  Efficacy in killing %: 95%

## Cc1cc(C2=NOC(c3cc(Cl)cc(Cl)c3)(C(F)(F)F)C2)sc1C(=O)NCC(=O)NCC#N (centres unmarked) [Compound 1.49]
Dose 3.2 mg/kg
  Efficacy in killing %: 85%

## O=C(NCC(F)(F)F)c1sc(C2=NOC(c3cc(Cl)cc(Cl)c3)(C(F)(F)F)C2)cc1-c1ccccc1 (centres unmarked) [Compound 1.21]
Dose 32 mg/kg
  Efficacy in killing %: 98%

## Cc1cc(C2=NOC(c3cc(Cl)cc(Cl)c3)(C(F)(F)F)C2)sc1C(=O)NCC1CCCO1 (centres unmarked) [Compound 1.29]
Dose 100 mg/kg
  Efficacy in killing %: 92%

Reference: US9044389B2, “Isoxazoline derivatives as pesticides” (Novartis AG, priority 2008, dated 2015)
